For one compound, Kd results are on record in publication PMC11649914, “Transport mechanism of DgoT, a bacterial homolog of SLC17 organic anion transporters” (The EMBO Journal, 2024).

What all share (experiment): SSM electrophysiology, kobs of pre-steady state current vs concentration
Common to all, as to format: biochemical

For experiment [1], the target named is T1, DgoT (Escherichia coli, UniProt A0A0H2Z574, R126Q).
T1 sequence (A0A0H2Z574 1-445 R126Q): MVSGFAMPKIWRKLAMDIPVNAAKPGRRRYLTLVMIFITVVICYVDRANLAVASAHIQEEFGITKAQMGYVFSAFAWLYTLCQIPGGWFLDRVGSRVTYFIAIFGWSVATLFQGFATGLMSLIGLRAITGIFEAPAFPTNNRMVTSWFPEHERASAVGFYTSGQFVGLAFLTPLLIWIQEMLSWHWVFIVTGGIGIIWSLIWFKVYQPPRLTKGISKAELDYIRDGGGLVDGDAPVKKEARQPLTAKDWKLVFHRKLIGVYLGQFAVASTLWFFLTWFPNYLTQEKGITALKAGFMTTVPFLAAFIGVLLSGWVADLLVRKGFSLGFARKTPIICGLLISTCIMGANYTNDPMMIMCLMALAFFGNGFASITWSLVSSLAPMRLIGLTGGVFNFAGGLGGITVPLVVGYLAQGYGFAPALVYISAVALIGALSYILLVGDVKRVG
An excerpt: (§1) SSM electrophysiology, kobs of pre-steady state current vs concentration on DgoT

In experiment [2] the target is T2, DgoT (Escherichia coli, UniProt A0A0H2Z574, D46N).
T2 sequence (A0A0H2Z574 1-445 D46N): T1 sequence (A0A0H2Z574 1-445 R126Q)
Excerpt: as §1

Experiment [3] has as its target T3, DgoT (Escherichia coli, UniProt A0A0H2Z574, E133Q).
T3 sequence (A0A0H2Z574 1-445 E133Q): T1 sequence (A0A0H2Z574 1-445 R126Q)
Excerpt: as §1

Experiment [4] concerns the target T4, DgoT (Escherichia coli, UniProt A0A0H2Z574).
T4 sequence (A0A0H2Z574 1-445): T1 sequence (A0A0H2Z574 1-445 R126Q)
Excerpt: as §1

The structures appear in SMILES notation.

Usually Kd stands for the concentration at which binding is half-saturated. Consider `O=C(O)[C@H](O)[C@@H](O)[C@@H](O)[C@H](O)CO` [D-galactonate], for which the dissociation constant (Kd) in experiment [1] is 22 mM; in experiment [2], 10.9 mM; in experiment [3], 15.3 mM; in experiment [4], 15.1 mM.
